The source of these data is patent US20050249743A1, “Isolated peptides which bind to HLA-A24 molecules and uses thereof” (priority 2004, published 2005).

Where no end group is shown, it is not given here.

The target in one test is T1, HLA-A2402 (Homo sapiens, UniProt P04439, D101N/D140Y/D185E/E176V/E190D/F33S/G103R/G107R/I119L/I121M/I306V/K335N/L105A/L180Q/L300P/N151K/N90K/Q86E/Q94H/R106L/R138H/R89G/T104I/T345S/V100E/W191G/Y123F).
T1 construct: made in house; host or cells: E. coli
In words: in vitro folding of recombinant HLA-A2402 with beta2-microglobulin and peptide (tetramer production). The test is classed as binding. The conditions noted are these: recombinant HLA-A2402 folded in vitro with beta2-microglobulin and peptide. An excerpt:
(§1) Recombinant HLA-A2402 molecules produced in E. coli were folded in vitro with beta2-microglobulin and peptide NYKRCFPVI (SEQ ID NO: 1) from MAGE-4, or peptide LYVDSLFFL (SEQ. ID NO: 2) from PRAME (control) (See Ikeda, et al., Immunity 6:199-208 (1997)), in accordance with Altman, et al., Science 274:94-96 (1996). The peptide of SEQ ID NO: 1 corresponds to amino acids 143-151 of MAGE-4. This specific peptide was selected because it is homologous to the peptide NYKHCFPEI (SEQ ID NO: 3), a MAGE-1 encoded peptide previously shown to be recognized by HLA-A24 restricted T cells. See Fujie, et al., Int. J. Cancer 80(2):169-172 (1999).
The HLA-peptide complexes were then purified by gel filtration, biotinylated and mixed as described in Altman, et al., supra with extraviden-phycoerythrin (PE) for the HLA-A24/MAGE-4 tetramer, or streptavidin-APC for the PRAME control tetramer. Both extravidin-PE and streptavidin-APC are commercially available. The tetramers were then used to label T cells, as described in the next example.

For test [1], the system named is HLA-A24+ Epstein Barr Virus-transformed B (EBV-B) cells. In words: chromium release assay, CTL 13 against peptide pulsed EBV-B cells. The test is classed as cell-based. On the procedure: In this experiment, CTL 13 was tested for specific lytic activity in standard chromium release assays.
In the assay, the targets of CTL 13 were HLA-A24^+ Epstein Barr Virus-transformed B (EBV-B) cells. The EBV-B cells were cultured in IMDM supplemented with 10% fetal calf serum, 0.24 mM L-asparagine, 0.55 mM L-arginine, AAG, 100 U/ml penicillin and 100 μg/ml streptomycin. The EBV-B cells were labeled with ^51Cr for one hour according to standard methods and then incubated for 5 minutes with peptide NYKRCFPVI (SEQ ID NO: 1) (1 μg/ml). The ^51Cr labeled, peptide pulsed EBV-B cells (targets) were then combined with CTL 13 (effector) at effector-to-target ratios shown in FIG. 3A. Chromium release was measured after 4 hours.
In further experiments, the HLA-A24 EBV-B cells were labeled with ^51Cr for one hour according to standard methods and then incubated for 15 minutes with threefold dilutions of the synthetic peptide NYKRCFPVI (SEQ ID NO: 1). CTL 13 was subsequently added at an effector-to-target ratio of 10:1 and chromium release was measured after 4 hours. The concentration of peptide shown in FIG. 3B corresponds to the concentrations during the 4 hour incubation. […] This is in the range of concentration observed for the previously identified antigenic MAGE peptides, for which values ranging from 0.05 to 200 nM have been observed. […]

Test [2] addresses Recombinant HLA-A2402 molecules produced in E. coli, folded with beta2-microglobulin (human). Put plainly: in vitro folding of recombinant HLA-A2402 with beta2-microglobulin and peptide.
From the text: as §1, with “NYKRCFPVI” left out, “LYVDSLFFL” left out, “NYKHCFPEI” left out

On to NYKRCFPVI [SEQ ID NO: 1, NYKRCFPVI], for which the “formation of HLA-A2402/peptide complexes” value on HLA-A2402 was “successful production of HLA-A2402 and SEQ ID NO: 1 peptide complexes”. Also, the EC50 in test [1] (CTL 13, effector-to-target ratio 10:1, chromium release after 4 hours, read-out: peptide concentration giving half maximal lysis of peptide pulsed HLA-A24 target cells) came out at 8 nM. Also, the “lysis of peptide pulsed target cells by CTL 13” value in test [1] (peptide 1 μg/ml, 5 minutes pulse, chromium release after 4 hours, unpulsed control targets not lysed) is listed as “lysed target cells pulsed with SEQ ID NO: 1 peptide”.

B1: peptide NYKRCFPVI (SEQ ID NO: 1) from MAGE-4 (peptide)
peptide: NYKRCFPVI
notes: Synthetic 9-mer; also called MAGE-4 antigenic peptide; MAGE-4.A24 peptide
B1: the binding result in test [2] is reported as “binds”.
